# Data as given in patent US20120101167A1, “Treatment of ocular and cerebral ischemia” (priority 2010, published 2012).
# Experiments:
# glaucomatous monkeys = assay: IOP and PBF responses in glaucomatous monkeys to a single topical unilateral application; assay type: in vivo, monkey; conditions: single topical unilateral 0.05 mg, four glaucomatous monkeys
# Experimental: (§1) 1. The Intraocular pressure and pulse form. The Langham pneumatic digitized tonometer was used to make continuous recordings of the intraocular pressure and its pulsatile character. This recording system provides the steady state IOP and the form of the IOP pulse with an accuracy equal to a manometric recording. The pulsatile ocular blood flow is evaluated from the amplitude of the individual pulses using the known pressure/volume relation of living human eyes. Langham, M. E., Farrell, R. A., O'Brien V., Silver, D. M., Non-Invasive Measurement of Pulsatile Ocular Blood Flow in the Human Eye (Eds., Lambrou G. N., Greve E.) pp. 93-99; Kugler and Ghedini, Amsterdam (1989).
# conscious rabbits = assay: Time course of IOP and ocular pulsatile blood flow in conscious rabbits after single topical application; assay type: in vivo, rabbit; conditions: six conscious rabbits; for Intraocular Pressure (IOP), Treated / Pulsatile Blood flow, Treated: treated eye, single topical 0.025% aqueous solution pH 7.40; for Intraocular Pressure (IOP), Difference / Pulsatile Blood flow, Difference: treated minus control eye, single topical 0.025% solution
# Experimental: as §1
# healthy human subjects = assay: Steady state IOP and pulsatile blood flow in healthy human subjects given repeated topical unilateral applications; assay type: in vivo; conditions: five healthy human subjects; for Intraocular Pressure (IOP), Treated / Pulsatile Blood flow, Treated: treated eye, 30 μl 0.025% solution topical unilateral at 0, 12, ... 96 hr; for Intraocular Pressure (IOP), Difference / Pulsatile Blood flow, Difference: treated minus control eye, 0.025% solution every 12 hr
# Experimental: as §1
compound,measurement,setting,value
"CN[C@H](C)[C@@H](O)c1ccc(OC(=O)C(C)(C)C)c(OC(=O)C(C)(C)C)c1 (single isomer, unassigned) [(+) erythro isomer of DPαMeEp, reference compound]","Intraocular Pressure (IOP), Treated","glaucomatous monkeys; Table 5, treated eye, 0 hr",36.8 ± 1.94 mmHg
same,"Pulsatile Blood flow, Treated","glaucomatous monkeys; Table 5, treated eye, 0 hr",564 ± 16 µL/min
same,"Intraocular Pressure (IOP), Treated","glaucomatous monkeys; Table 5, treated eye, 1 hr",36.3 ± 3.17 mmHg
same,"Pulsatile Blood flow, Treated","glaucomatous monkeys; Table 5, treated eye, 1 hr",555 ± 26 µL/min
same,"Intraocular Pressure (IOP), Treated","glaucomatous monkeys; Table 5, treated eye, 3 hr",35.0 ± 2.28 mmHg
same,"Pulsatile Blood flow, Treated","glaucomatous monkeys; Table 5, treated eye, 3 hr",575 ± 22 µL/min
same,"Intraocular Pressure (IOP), Treated","glaucomatous monkeys; Table 5, treated eye, 6 hr",36.8 ± 3.31 mmHg
same,"Pulsatile Blood flow, Treated","glaucomatous monkeys; Table 5, treated eye, 6 hr",564 ± 23 µL/min
same,"Intraocular Pressure (IOP), Treated","glaucomatous monkeys; Table 5, treated eye, 24 hr",34.6 ± 2.76 mmHg
same,"Pulsatile Blood flow, Treated","glaucomatous monkeys; Table 5, treated eye, 24 hr",549 ± 27 µL/min
"CN[C@@H](C)[C@H](O)c1ccc(OC(=O)C(C)(C)C)c(OC(=O)C(C)(C)C)c1 (single isomer, unassigned) [(−) erythro isomer of DPαMeEp, dipivalyl α MeEp]","Intraocular Pressure (IOP), Treated",conscious rabbits; 0 hr,19.4 ± 0.7 mmHg
same,"Pulsatile Blood flow, Treated",conscious rabbits; 0 hr,651 ± 28 µL/min
same,"Intraocular Pressure (IOP), Treated",conscious rabbits; 1 hr,13.0 ± 0.5 mmHg
same,"Pulsatile Blood flow, Treated",conscious rabbits; 1 hr,880 ± 32 µL/min
same,"Intraocular Pressure (IOP), Treated",conscious rabbits; 3 hr,12.8 ± 0.4 mmHg
same,"Pulsatile Blood flow, Treated",conscious rabbits; 3 hr,957 ± 33 µL/min
same,"Intraocular Pressure (IOP), Treated",conscious rabbits; 5 hr,13.8 ± 0.4 mmHg
same,"Pulsatile Blood flow, Treated",conscious rabbits; 5 hr,963 ± 30 µL/min
same,"Intraocular Pressure (IOP), Treated",conscious rabbits; 12 hr,15.6 ± 0.6 mmHg
same,"Pulsatile Blood flow, Treated",conscious rabbits; 12 hr,924 ± 29 µL/min
same,"Intraocular Pressure (IOP), Treated",conscious rabbits; 24 hr,19.7 ± 0.7 mmHg
same,"Pulsatile Blood flow, Treated",conscious rabbits; 24 hr,682 ± 41 µL/min
same,"Intraocular Pressure (IOP), Difference",conscious rabbits; 0 hr,−0.1 ± 0.1 mmHg
same,"Pulsatile Blood flow, Difference",conscious rabbits; 0 hr,3 ± 3 µL/min
same,"Intraocular Pressure (IOP), Difference",conscious rabbits; 1 hr,−6.4 ± 0.3 mmHg
same,"Pulsatile Blood flow, Difference",conscious rabbits; 1 hr,255 ± 24 µL/min
same,"Intraocular Pressure (IOP), Difference",conscious rabbits; 3 hr,−6.5 ± 0.4 mmHg
same,"Pulsatile Blood flow, Difference",conscious rabbits; 3 hr,332 ± 29 µL/min
same,"Intraocular Pressure (IOP), Difference",conscious rabbits; 5 hr,−5.3 ± 0.4 mmHg
same,"Pulsatile Blood flow, Difference",conscious rabbits; 5 hr,328 ± 24 µL/min
same,"Intraocular Pressure (IOP), Difference",conscious rabbits; 12 hr,−3.9 ± 0.3 mmHg
same,"Pulsatile Blood flow, Difference",conscious rabbits; 12 hr,290 ± 31 µL/min
same,"Intraocular Pressure (IOP), Difference",conscious rabbits; 24 hr,0 ± 0 mmHg
same,"Pulsatile Blood flow, Difference",conscious rabbits; 24 hr,10 ± 4 µL/min
same,"Intraocular Pressure (IOP), Treated",healthy human subjects; 0 hr,15.5 ± 0.5 mmHg
same,"Pulsatile Blood flow, Treated",healthy human subjects; 0 hr,675 ± 35 µL/min
same,"Intraocular Pressure (IOP), Treated",healthy human subjects; 2 hr,12.0 ± 0.7 mmHg
same,"Pulsatile Blood flow, Treated",healthy human subjects; 2 hr,818 ± 30 µL/min
same,"Intraocular Pressure (IOP), Treated",healthy human subjects; 6 hr,13.2 ± 9.2 mmHg
same,"Pulsatile Blood flow, Treated",healthy human subjects; 6 hr,802 ± 17 µL/min
same,"Intraocular Pressure (IOP), Treated",healthy human subjects; 12 hr,14.0 ± 0.4 mmHg
same,"Pulsatile Blood flow, Treated",healthy human subjects; 12 hr,780 ± 15 µL/min
same,"Intraocular Pressure (IOP), Treated",healthy human subjects; 24 hr,15.0 ± 0.4 mmHg
same,"Pulsatile Blood flow, Treated",healthy human subjects; 24 hr,758 ± 30 µL/min
same,"Intraocular Pressure (IOP), Treated",healthy human subjects; 28 hr,12.4 ± 0.5 mmHg
same,"Pulsatile Blood flow, Treated",healthy human subjects; 28 hr,790 ± 34 µL/min
same,"Intraocular Pressure (IOP), Treated",healthy human subjects; 52 hr,12.8 ± 0.4 mmHg
same,"Pulsatile Blood flow, Treated",healthy human subjects; 52 hr,764 ± 14 µL/min
same,"Intraocular Pressure (IOP), Treated",healthy human subjects; 78 hr,11.8 ± 0.5 mmHg
same,"Pulsatile Blood flow, Treated",healthy human subjects; 78 hr,832 ± 24 µL/min
same,"Intraocular Pressure (IOP), Treated",healthy human subjects; 100 hr,12.7 ± 0.4 mmHg
same,"Pulsatile Blood flow, Treated",healthy human subjects; 100 hr,812 ± 15 µL/min
same,"Intraocular Pressure (IOP), Difference",healthy human subjects; 0 hr,0 ± 0.1 mmHg
same,"Pulsatile Blood flow, Difference",healthy human subjects; 0 hr,4 ± 6 µL/min
same,"Intraocular Pressure (IOP), Difference",healthy human subjects; 2 hr,−3.4 ± 3.4 mmHg
same,"Pulsatile Blood flow, Difference",healthy human subjects; 2 hr,127 ± 27 µL/min
same,"Intraocular Pressure (IOP), Difference",healthy human subjects; 6 hr,−2.6 ± 2.6 mmHg
same,"Pulsatile Blood flow, Difference",healthy human subjects; 6 hr,131 ± 14 µL/min
same,"Intraocular Pressure (IOP), Difference",healthy human subjects; 12 hr,−1.8 ± 1.1 mmHg
same,"Pulsatile Blood flow, Difference",healthy human subjects; 12 hr,104 ± 12 µL/min
same,"Intraocular Pressure (IOP), Difference",healthy human subjects; 24 hr,−0.6 ± 0.3 mmHg
same,"Pulsatile Blood flow, Difference",healthy human subjects; 24 hr,82 ± 7 µL/min
same,"Intraocular Pressure (IOP), Difference",healthy human subjects; 28 hr,2.9 ± 0.4 mmHg
same,"Pulsatile Blood flow, Difference",healthy human subjects; 28 hr,132 ± 19 µL/min
same,"Intraocular Pressure (IOP), Difference",healthy human subjects; 52 hr,−2.7 ± 0.6 mmHg
same,"Pulsatile Blood flow, Difference",healthy human subjects; 52 hr,110 ± 24 µL/min
same,"Intraocular Pressure (IOP), Difference",healthy human subjects; 78 hr,−3.7 ± 0.4 mmHg
same,"Pulsatile Blood flow, Difference",healthy human subjects; 78 hr,156 ± 8 µL/min
same,"Intraocular Pressure (IOP), Difference",healthy human subjects; 100 hr,3.3 ± 0.4 mmHg
same,"Pulsatile Blood flow, Difference",healthy human subjects; 100 hr,138 ± 8.5 µL/min
same,"Intraocular Pressure (IOP), Treated","glaucomatous monkeys; Table 4, treated glaucomatous eye, 0 hr",33.4 ± 1.94 mmHg
same,"Intraocular Pressure (IOP), Treated","glaucomatous monkeys; Table 4, treated glaucomatous eye, 1 hr",26.3 ± 3.17 mmHg
same,"Intraocular Pressure (IOP), Treated","glaucomatous monkeys; Table 4, treated glaucomatous eye, 3 hr",21.7 ± 3.77 mmHg
same,"Intraocular Pressure (IOP), Treated","glaucomatous monkeys; Table 4, treated glaucomatous eye, 8 hr",21.9 ± 3.31 mmHg
same,"Intraocular Pressure (IOP), Treated","glaucomatous monkeys; Table 4, treated glaucomatous eye, 10 hr",22.1 ± 2.76 mmHg
same,"Intraocular Pressure (IOP), Treated","glaucomatous monkeys; Table 4, treated glaucomatous eye, 12 hr",21.8 ± 2.61 mmHg
same,"Intraocular Pressure (IOP), Treated","glaucomatous monkeys; Table 4, treated glaucomatous eye, 24 hr",24.6 ± 2.37 mmHg
same,"Intraocular Pressure (IOP), Treated","glaucomatous monkeys; Table 4, treated glaucomatous eye, 26 hr",26.3 ± 2.16 mmHg
same,"Intraocular Pressure (IOP), Treated","glaucomatous monkeys; Table 4, treated glaucomatous eye, 28 hr",25.0 ± 2.09 mmHg
same,"Intraocular Pressure (IOP), Treated","glaucomatous monkeys; Table 4, treated glaucomatous eye, 30 hr",25.0 ± 2.28 mmHg
same,"Intraocular Pressure (IOP), Treated","glaucomatous monkeys; Table 4, treated glaucomatous eye, 36 hr",27.3 ± 2.09 mmHg
